How the values were obtained:
Assay in all cases: electrospray mass spectrometry
[1] = tested on: UpsB-Q-4 (DNA, G4) CAGGGTTTAGGGTATAACTTTAGGGGTTAGGGTT; settings: NH4+ 150 mM (NH4OAc); 20% methanol; 10 μM DNA
[2] = tested on: UpsB-Q-3 (DNA, G4) CAGGGTTAAGGGTATACATTTAGGGGTTAGGGTT; settings: NH4+ 150 mM (NH4OAc); 20% methanol; 10 μM DNA
[3] = tested on: UpsB-Q-1 (DNA, G4) CAGGGTTAAGGGTATAACTTTAGGGGTTAGGGTT; settings: NH4+ 150 mM (NH4OAc); 20% methanol; 10 μM DNA, equimolar 10 μM BOQ1 in Figure 6B
[4] = tested on: UpsB-Q-2 (DNA, G4) TAGGGTTAAGGGTATAACGTTAAGGGTTAGGGTT; settings: NH4+ 150 mM (NH4OAc); 20% methanol; 10 μM DNA

- Kd [1]: 2700 ± 1100 nM
- Kd [2]: 1700 ± 700 nM
- Kd [3]: 2600 ± 500 nM
- Kd [4]: 1400 ± 400 nM
SMILES: c1cc2nc3c4ccc5cc6cc(ccc6nc53)CNCCNCCNCc3ccc5nc6c(ccc7cc8cc(ccc8nc76)CNCCNCCNCc1cc2c4)cc5c3

Source: paper PMC2736202 (2009)
